Laboratory results reported in US20220079876A1, “OCULAR IMPLANT CONTAINING A TYROSINE KINASE INHIBITOR” (Ocular Therapeutix, Inc., priority 2020, published 2022).
Converted amounts (≈) assume the structure as drawn. One block for each compound: values may come before it.

Experiments:
[1] = in vivo; cited from earlier work
[2] = 1.25 mg intravitreal dose (Sinapis et al., 2011); cited from earlier work
[3] = tested on: VEGF-induced vascular leakage; experiment: VEGF challenge, vascular leakage scored by fluorescein angiography; type: in vivo, Dutch belted rabbits; settings: rabbit; 1.25 mg Avastin intravitreal only (group 3)
[4] = Rugo et al. 2005; cited from earlier work
[5] = In vitro axitinib release under non-sink simulated physiological conditions; type: physicochemical; settings: pH 7.2, aqueous buffer, thermodynamic from solid; PBS from control implant release after 20 or 30 days at 37° C.
Description: Three exemplarily selected implant formulations were examined (Table 1). Implant variants #1 and 2 were examined using one implant, implant variant #3 using one and two implants (four conditions in total). All conditions were conducted in duplicate.
In vitro released and non-released axitinib was determined for each group without (control) and with daily release media sampling.
For control implant release, samples were placed in tubes. Five mL of PBS (pH 7.2) were added to each tube on day 0 and the tubes were covered with a lid. Samples were then placed in a 37° C. incubator and gently rocked for 20 (1× implant #3) or 30 days (implant #1 and #2, 2× implant #3). At the end of the test period, the PBS was removed (1 mL PBS was saved for testing). One mL of ethanol was added to the residual sample. Both PBS samples and residual samples were tested for axitinib amount released.
For daily implant release, samples were placed in tubes. Five mL of PBS were added to each tube on day 0 and the tubes were covered with a lid. Samples were then placed in a 37° C. incubator and rocked gently. After 24 hours, 4 mL of PBS were removed from each sample from which 1 mL was used for testing and the remaining 3 mL were disposed. Four mL of fresh PBS were added back into each tube. This process was repeated for 20 (1× implant #3) or 30 days (implant #1 and #2, 2× implant #3). […]

Compound: aflibercept: anti-VEGF agent, aflibercept injection by Regeneron
t1/2 in the human eye [1]: several days

Compound: Avastin®: anti-VEGF therapeutic
Half-life in rabbits [2]: 6.6 days | Duration of effect post injection [3]: ≤ 3 months | Vascular leakage after VEGF challenge, after 3 months [3]: vascular leakage re-occurred

Compound: ranibizumab: anti-VEGF agent, ranibizumab injection by Genentech
t1/2 in the human eye [1]: several days

solubility [5]: 0.24 to 0.4 µg/mL (≈ 0.621 to 1.03 µM)
Compound: CNC(=O)c1ccccc1Sc1ccc2c(/C=C/c3ccccn3)n[nH]c2c1 [axitinib, N-methyl-2-[3-((E)-2-pyridin-2-yl-vinyl)-1H-indazol-6-ylsulfanyl]-benzamide]
Clearance half-life (t1/2) [4]: a few hours
